Entries after “also recorded” stand apart in the source; their conditions may differ.
Columns and labels:
K1 capsule of UTI89 = test: Secondary assay 3: orcinol assay for released K1 capsule polysaccharide; format: cell-based, Escherichia coli; settings: 100 μM, K1 strain UTI89
Procedure: E. Secondary Assay 3: Orcinol Secondary Screening for Inhibitors of Bacterial Capsule Biogenesis.
Purpose: This assay was performed only on the probe candidate. […] The biochemical determination of cell-surface associated capsule was performed using UTI89 or the Delta Region I and Delta Region II capsule mutant bacterial strains.
Purpose: This assay was performed only on the probe candidate. […] The biochemical determination of cell-surface associated capsule was performed using UTI89 or the delta Region I and Region II capsule mutant bacterial strains.
Assay Description: The biochemical measurement of cell-surface associated capsule was performed. UTI89 or capsule mutants were grown in culture tubes with and without the test compound (50 μM). The cultures were centrifuged, and the cell pellets were washed in PBS and resuspended in Tris buffer, pH5. […] Released polysaccharide was harvested by separation from whole bacteria by centrifugation followed by deproteination with phenol/chloroform and precipitation with ethanol. The precipitated material was subjected to acid hydrolysis (pH 2 at 80° C. for 1 hr) and incubated with orcinol, which reacts with periodic intermediates to produce a violet color quantified at OD 570 (3) Inhibitors reducing or abrogating surface encapsulation yielded low orcinol levels similar to the capsule export and synthesis mutants (Region I and II). The positive control drug C7 (100 μM final well concentration) was used in this screen.
Endpoint Read: The samples were read at ambient temperature from the bottom for absorbance at A570 in a BioTek Quantplate reader and the degree of orcinol-reactive material was determined based on the absorbance compared to a wild-type encapsulated strain (UTI89) and a standard curve using purified sialic acid.
Orcinol assay for released capsule material. Orcinol reactivity was used as a biochemical confirmation of altered extracellular capsule after compound treatment. UTI89 or an isogenic capsule mutant was grown in 100 μM of test compound or 1% DMSO. The assay was performed as previously described. The molecule C7 (100 μM final concentration) was used as a positive control. The assay was performed 3 times with replicate samples.

[1] = biological target: norepinephrine transporter (Homo sapiens, UniProt P23975); test: LeadProfilingScreen, single target; format: binding; settings: duplicate
norepinephrine transporter, sequence (P23975 whole entry): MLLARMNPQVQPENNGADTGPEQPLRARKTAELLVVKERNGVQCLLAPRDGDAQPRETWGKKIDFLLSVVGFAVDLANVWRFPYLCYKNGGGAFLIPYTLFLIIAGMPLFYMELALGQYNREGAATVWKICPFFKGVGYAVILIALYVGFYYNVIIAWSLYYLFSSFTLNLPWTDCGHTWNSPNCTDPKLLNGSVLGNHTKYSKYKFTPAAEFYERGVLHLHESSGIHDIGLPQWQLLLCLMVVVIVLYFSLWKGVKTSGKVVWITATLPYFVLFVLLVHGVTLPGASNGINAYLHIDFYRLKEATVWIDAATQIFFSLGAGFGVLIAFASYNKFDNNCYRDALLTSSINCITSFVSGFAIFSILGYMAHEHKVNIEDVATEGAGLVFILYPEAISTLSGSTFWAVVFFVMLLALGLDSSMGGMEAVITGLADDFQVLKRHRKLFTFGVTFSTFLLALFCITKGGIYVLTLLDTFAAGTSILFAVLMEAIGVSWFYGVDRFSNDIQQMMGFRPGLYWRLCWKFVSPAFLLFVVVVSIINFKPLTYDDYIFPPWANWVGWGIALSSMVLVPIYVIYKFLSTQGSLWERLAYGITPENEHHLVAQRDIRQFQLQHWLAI
Procedure: Evaluation of off-target effects. Off target effects of lead molecules of interest were evaluated using the LeadProfilingScreen commercial assay at Eurofins Panlabs (Bothell, Wash.). Reference standards were run as an integral part of each assay to ensure the validity of the results obtained. Assay results are presented as the percent inhibition of specific binding or activity (for n=2 replicates) for the probe compound tested at a concentration of 10 μM. Details regarding the individual assays and methods are provided in Supplementary Information File 51.
DU003 & DU011 are biologically selective. DU003 and DU011 were submitted to the Eurofins Panlabs LeadProfilingScreen to assess off-target pharmacology 1421. […] In review of PubChem data, DU011 (CID23602075) is reported to have shown activity in only 21 of 467 (4.5%, as of Sep. 5, 2013) bioassays in which it was tested (assays unrelated to the current project). Per PubChem, DU003 (CID18109210) is reported to have shown activity in only 5 of 427 (1.2%, as of Sep. 5, 2013) bioassays in which it was tested (assays unrelated to the current project).

K1 antigen of UTI89 = test: K1 antigen whole-cell dot blot with anti-K1 serum; format: cell-based, Escherichia coli; settings: 100 μM
Procedure: K1 antigen dot blot. K1 antigen was detected by dot blot assays of culture extracts probed with anti-K1 H46 serum. The assay was performed as previously described. The experiment was repeated twice with similar results, and a representative dot blot is shown.

E. coli UTI89 = test: Human serum sensitization (MTT); format: cell-based, Escherichia coli; settings: 50 μM compound, p=0.0067 versus control
Procedure: Human serum sensitization by capsule inhibitor treatment. Overnight cultures of UTI89 were diluted 1:100 and grown with or without 50 μM compound for approximately 1.5 hrs on a shaker at 37° C. Then 25 μL of anonymous, non-identified, sterile filtered pooled human serum (purchased from Equitech Bio) was added per 100 μL of growth media. This was returned to the shaker for another 3 hrs, after which 20 μL of 5 mg/mL MTT (3-(4,5-Dimethylthiazol-2-yl)-2,5-diphenyltetrazolium bromide) was added. MTT is reduced to purple formazan by bacterial reductase enzymes, thus measuring viable bacteria. This was shaken for another 15 min at 37° C. The sample was spun to remove the growth media, followed by two washes with PBS. The formazan crystals were dissolved in 100 μL of DMSO and measured at OD570.

panel of 68 receptors = settings: 10 μM, duplicate; upper bound over all targets
[2] = test system: Bladder carcinoma 5637 cells; settings: earlier report; cited from earlier work
UPEC K1 strain UTI80 = settings: cited from earlier work
E. coli K1 strain UTI89 [3] = test: microbe, parasite or virus in culture; settings: for IC50: Escherichia coli; for Selectivity: five probe analogues
Outline: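 UTI89 cultures in LB with 0.5% DMSO were preincubated 2 hr at 37 °C with compounds (100 μM in screen), then with K1F phage a further 2 hr. Viability was read as Alamar Blue fluorescence. Phage-lysis inhibition is relative to plate bacterial controls; IC50 by 4-parameter fit locked at 0 and 100.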

[4] = Cytotoxicity counterscreen, CellTiter Glo, 72 hr; format: cell-based, human; settings: human, bladder carcinoma 5637 cells (ATCC HTB-9), five probe analogues
Outline: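 5637 bladder carcinoma cells were exposed to a 10-point compound series (300-0.58 μM, 0.5% DMSO) for 72 h. Viability was measured by CellTiter-Glo luminescence, and TC50 (CC50) was derived, with Hyamine as cytotoxic control.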

E. coli K1 strain UTI89 [5] = test: Secondary assay 2: T7 phage-mediated lysis assay; format: cell-based, Escherichia coli; settings: Escherichia coli, five probe analogues; read-out: T7 phage IC50
Outline: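 E. coli K1 UTI89 shaken 1.5 h with compound (100–0.39 μM, quadruplicate, 1% DMSO), initial OD600 taken to flag growth effects without phage. T7 phage, whose entry is blocked by K capsule, then added; OD600 lysis read after 3 h at 37 °C, greater lysis indicating less capsule.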

[6] = Thiol stability (glutathione, DTT); format: physicochemical; settings: 10 μM compound, PBS pH 7.4, room temperature, eight hours
Procedure: Compounds were dissolved at 10 μM in PBS at pH 7.4 (1% DMSO) and incubated at room temperature with either no thiol source as a negative control, 50 μM glutathione (GSH), or 50 μM dithiothreitol (DTT). The mixtures were sampled every hour for eight hours and analyzed by RP HPLC/UV/HRMS. The analytical RP HPLCUV/HRMS system utilized for the analysis was a Waters Acquity system with UV-detection and mass-detection (Waters LCT Premier). The analytical method conditions included a Waters Acquity HSS T3 C18 column (2.1×50 mm, 1.8 um) and elution with a linear gradient of 1% water to 100% CH3CN at 0.6 mL/min flow rate. Peaks on the 214 nm chromatographs were integrated using the Waters OpenLynx software. Absolute areas under the curve were compared at each time point to determine relative percent compound remaining. The masses of potential adducts were searched for in the final samples to determine if any detectable adduct formed. All samples were prepared in duplicate (FIG. 5). Ethacrynic acid, a known Michael acceptor, was used as a positive control. If solubility of the compound was an issue at 10 μM, PBS was substituted with PBS with 50% acetonitrile (35).

[7] = read-out: K1 phage IC50, five probe analogues
[8] = read-out: K1 phage IC50 (inhibition of K1 capsule formation)

Compound	Reduction of orcinol-reactive polysaccharides on surface of bacteria (K1 capsule of UTI89)	IC50 (E. coli K1 strain UTI89 [3]; [7])	Selectivity (E. coli K1 strain UTI89 [3])	IC50 at 72 h [4]	IC50 (E. coli K1 strain UTI89 [5])	IC50 (E. coli K1 strain UTI89 [3]; [8])	other results
O=C(Nc1ccncc1)c1ccc2ncsc2c1 [DU003, N-pyridin-4-yl-1,3-benzothiazole-6-carboxamide]	~80%	–	–	–	–	–	inhibition at 10 µM [1]: 58%; Whole-cell anti-K1 dot blot reactivity (K1 antigen of UTI89): reduces K1 reactive material to levels comparable to those of genetic capsule mutants; Sensitivity of UTI89 to pooled human serum (MTT) (E. coli UTI89): further increased serum-mediated killing; also recorded: significantly more sensitive; Inhibition across off-target panel (panel of 68 receptors): < 30%
O=C(O)c1cc(-c2ccc(-c3ccccc3)cc2)nc2cc3ccccc3cc12 [C7, 2-(4-phenylphenyl)-benzo[g]quinoline-4-carboxylic acid]	~80%	–	–	–	–	–	Toxicity to cultured bladder epithelial cells [2]: lacks obvious toxicity; Concentration at which the inhibitory effect reaches saturation (UPEC K1 strain UTI80): approximately 25 μM; IC50 (UPEC K1 strain UTI80; read-out: Concentration giving approximately 50% inhibition of K1F phage lysis (IC50)): 12.5 to 25 µM
CCOc1ccc(-c2cc(NC(=O)c3ccc(Br)s3)c(C(=O)O)s2)cc1 [CID 53470415, 3-(5-Bromothiophene-2-carboxamido)-5-(4-ethoxyphenyl)thiophene-2-carboxylic acid]	–	17 ± 4.49 µM	2.92	49.7 ± 6.49 µM	3.33 µM	–	–
C=C(CC)C(=O)c1ccc(OCC(=O)O)c(Cl)c1Cl [ethacrynic acid, Ethacrynic acid]	–	–	–	–	–	–	Stability to DTT ([6]; 50 μM DTT): even more rapidly; Stability to glutathione ([6]; 50 μM GSH): react rapidly
O=C(O)c1sc(-c2ccc(OC(F)(F)F)cc2)cc1NC(=O)c1c(F)cccc1F [CID 53495055, 3-(2,6-Difluorobenzamido)-5-(4-(trifluoromethoxy)phenyl)thiophene-2-carboxylic acid]	–	13 ± 4.6 µM	3.91	51 ± 2.62 µM	1.35 µM	13 µM	–
COc1ccc(-c2cc(NC(=O)c3ccc(Br)o3)c(C(=O)O)s2)cc1 [CID 53470446, 3-(5-Bromofuran-2-carboxamido)-5-(4-methoxyphenyl)thiophene-2-carboxylic acid]	–	11.1 ± 3.33 µM	4.55	50.5 ± 0.52 µM	1.24 µM	11.1 µM	–
